Molecular target: hGYS1 enzyme (recombinant hGYS1/GN1 protein) (Homo sapiens (Human), UniProt P13807)
Assay: GYS1 coupled enzyme assay (PK/LDH)
Format: biochemical
Conditions: hGYS1/GN1 50 nM, UDP-Glucose 0.8 mM, G6P 1 mM; geometric mean of at least 2 runs
Text: The GYS1 coupled enzyme assay is a kinetic biochemical assay that indirectly quantifies the rate of glycogen synthesis by coupling the conversion of GYS1 substrate UDP-glucose into UDP with downstream enzymatic reactions. UDP is released from UDP-glucose as glucose monomers are linked into the growing glycogen strand by GYS1. The coupled assay then proceeds with pyruvate kinase utilizing UDP and phospho(enol)pyruvate (PEP) to form pyruvate. Lactate dehydrogenase then converts pyruvate and NADH into lactate and NAD+. Oxidation of NADH to NAD+ can be measured continuously with a plate reader by quantifying the decrease in NADH absorbance at 340 nm over time.
Compounds that inhibit the hGYS1 enzyme and, subsequently, the downstream conversion of NADH to NAD+, were tested using assay ready plates (black, clear bottom 384 well plates) in a final DMSO reaction volume of 2.5% DMSO. The Assay Buffer contained 50 mM Tris pH 7.5, 2 mM MgCl2, and 100 mM KCl. Fresh stocks of BSA at a final concentration of 0.02% and TCEP at 1 mM were added before splitting buffer into hGYS1 buffer and substrate buffer. To the hGYS1 buffer, rabbit liver glycogen was added at a final concentration of 0.2% glycogen. Glucose-6-Phosphate was added at 1 mM, recombinant hGYS1/GN1 protein was added at 50 nM to the substrate buffer, phosphoenolpyruvate (PEP) was added at 2 mM, UDP-Glucose was added at 0.8 mM, NADH) was added at 0.6 mM, and Pyruvate Kinase/Lactate Dehydrogenase was added at 20 units/mL. The reaction was initiated by mixing hGYS1 buffer and substrate buffer at a 1:1 ratio. Both buffers were plated using a liquid dispensing device with hGYS1 buffer plated first followed by the substrate buffer. Plates were spun briefly to eliminate air bubbles and are immediately read in continuous mode at an absorbance of 340 nm, for 10 time points in one-minute increments, for a total of 10 minutes. The slope from these 10 time points was normalized to the positive and negative control wells. The duplicate % inhibition values are then averaged and fit to a Hill equation for dose response according to the Levenberg-Marquardt algorithm with the Hill equation maximum set to 100 and the minimum set to 0.
Unless otherwise specified, IC50 values are reported as the geometric mean of at least 2 assay runs on separate days. Each run represents the average of a technical replicate, where each compound was assayed twice in the same plate. […] A superscript “#” symbol in Table 2 indicates results from a single assay run.

hGYS1 enzyme (recombinant hGYS1/GN1 protein), sequence (P13807 whole entry): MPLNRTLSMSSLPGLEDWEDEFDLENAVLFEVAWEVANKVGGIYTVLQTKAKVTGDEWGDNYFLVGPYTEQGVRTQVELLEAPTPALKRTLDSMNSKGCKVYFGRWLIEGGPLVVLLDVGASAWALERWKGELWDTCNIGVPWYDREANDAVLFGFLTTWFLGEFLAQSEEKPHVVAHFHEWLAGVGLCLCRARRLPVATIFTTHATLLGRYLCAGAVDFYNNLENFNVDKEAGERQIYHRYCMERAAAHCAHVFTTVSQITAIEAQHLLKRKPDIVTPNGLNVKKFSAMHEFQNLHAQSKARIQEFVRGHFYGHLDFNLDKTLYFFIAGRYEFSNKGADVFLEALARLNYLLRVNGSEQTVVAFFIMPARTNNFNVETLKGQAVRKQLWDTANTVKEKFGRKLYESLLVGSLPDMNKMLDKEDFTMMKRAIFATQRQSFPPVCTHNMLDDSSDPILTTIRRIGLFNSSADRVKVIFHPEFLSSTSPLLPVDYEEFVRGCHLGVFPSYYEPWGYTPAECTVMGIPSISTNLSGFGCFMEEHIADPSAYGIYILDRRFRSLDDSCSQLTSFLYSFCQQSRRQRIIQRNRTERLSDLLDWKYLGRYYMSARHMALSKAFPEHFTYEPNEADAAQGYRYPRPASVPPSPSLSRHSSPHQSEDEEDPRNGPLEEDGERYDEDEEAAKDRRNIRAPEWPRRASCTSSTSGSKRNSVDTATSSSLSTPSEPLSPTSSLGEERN
hGYS1 enzyme (recombinant hGYS1/GN1 protein), sequence (P46976 whole entry partner): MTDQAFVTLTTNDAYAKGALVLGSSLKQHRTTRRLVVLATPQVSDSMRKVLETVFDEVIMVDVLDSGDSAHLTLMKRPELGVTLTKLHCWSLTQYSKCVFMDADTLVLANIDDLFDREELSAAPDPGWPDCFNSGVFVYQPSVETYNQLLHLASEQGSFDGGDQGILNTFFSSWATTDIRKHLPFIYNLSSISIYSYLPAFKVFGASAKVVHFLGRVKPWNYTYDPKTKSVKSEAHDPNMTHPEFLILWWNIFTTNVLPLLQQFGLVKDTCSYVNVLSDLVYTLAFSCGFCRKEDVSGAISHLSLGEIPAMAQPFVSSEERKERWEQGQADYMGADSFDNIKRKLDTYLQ

CC(C)CNC(=O)C(=O)N1C[C@H](F)C[C@H]1C(=O)N[C@@H](c1ccccc1)c1ccc(C(C)C)cc1 [Compound 111, (2S,4R)-4-fluoro-1-{[(2-methylpropyl)carbamoyl]carbonyl}-N-[(S)-phenyl[4-(propan-2-yl)phenyl]methyl]pyrrolidine-2-carboxamide]
IC50: 1080 nM

CC(C)c1ccc(C(NC(=O)[C@@H]2C[C@@H](F)CN2C(=O)Cc2cnn[nH]2)c2cccc(N)n2)cc1F (single isomer, unassigned) [Compound 621, (2S,4R)-N-[(R) or (S)-(6-aminopyridin-2-yl)[3-fluoro-4-(propan-2-yl)phenyl]methyl]-4-fluoro-1-[2-(1H-1,2,3-triazol-5-yl)acetyl]pyrrolidine-2-carboxamide]
IC50: 555 nM

CC(C)c1ccc([C@@H](NC(=O)[C@@H]2C[C@@H](F)CN2C(=O)c2cnco2)c2ccccc2)cc1 [Compound 12, (2S,4R)-4-fluoro-1-(1,3-oxazole-5-carbonyl)-N-[(S)-phenyl[4-(propan-2-yl)phenyl]methyl]pyrrolidine-2-carboxamide]
IC50: 415 nM

CC(Oc1cccnc1)C(=O)N1C[C@H](F)C[C@H]1C(=O)N[C@@H](c1ccccc1)c1ccc(C(C)C)cc1 (stereo partly drawn) [Compound 124, (2S,4R)-4-fluoro-N-[(S)-phenyl[4-(propan-2-yl)phenyl]methyl]-1-[2-(pyridin-3-yloxy)propanoyl]pyrrolidine-2-carboxamide]
IC50: 78 nM

CC(C)c1ccc([C@@H](NC(=O)[C@@H]2C[C@@H](F)CN2C(=O)Cc2cc[nH]n2)c2ccccc2)cc1 [Compound 19, (2S,4R)-4-fluoro-N-[(S)-phenyl[4-(propan-2-yl)phenyl]methyl]-1-[2-(1H-pyrazol-5-yl)acetyl]pyrrolidine-2-carboxamide]
IC50: 47 nM

CC(=O)N1CCN(CC(=O)N2C[C@H](F)C[C@H]2C(=O)N[C@@H](c2ccccc2)c2ccc(C(C)C)cc2)CC1 [Compound 235, (2S,4R)-1-[2-(4-acetylpiperazin-1-yl)acetyl]-4-fluoro-N-[(S)-phenyl[4-(propan-2-yl)phenyl]methyl]pyrrolidine-2-carboxamide]
IC50: 342 nM

CC(C)c1ccc([C@@H](NC(=O)[C@@H]2C[C@@H](F)CN2C(=O)C(=O)N(C)C)c2ccccc2)cc1 [Compound 115, (2S,4R)-1-[(dimethylcarbamoyl)carbonyl]-4-fluoro-N-[(S)-phenyl[4-(propan-2-yl)phenyl]methyl]pyrrolidine-2-carboxamide]
IC50: 493 nM

Cc1cc(C(C)C)ccc1[C@@H](NC(=O)[C@@H]1C[C@@H](F)CN1C(=O)Cc1ncco1)c1ccccc1 [Compound 663, (2S,4R)-4-fluoro-N-[(S)-[2-methyl-4-(propan-2-yl)phenyl](phenyl)methyl]-1-[2-(1,3-oxazol-2-yl)acetyl]pyrrolidine-2-carboxamide]
IC50: 2020 nM

CC(Cc1ccccn1)C(=O)N1C[C@H](F)C[C@H]1C(=O)N[C@@H](c1ccccc1)c1ccc(C(C)C)cc1 (stereo partly drawn) [Compound 132, (2S,4R)-4-fluoro-1-[2-methyl-3-(pyridin-2-yl)propanoyl]-N-[(S)-phenyl[4-(propan-2-yl)phenyl]methyl]pyrrolidine-2-carboxamide]
IC50: 99 nM

CC(=O)N1CCC2(CC(C(=O)N3C[C@H](F)C[C@H]3C(=O)N[C@@H](c3ccccc3)c3ccc(C(C)C)cc3)=NO2)C1 (stereo partly drawn) [Compound 4, (2S,4R)-{7-acetyl-1-oxa-2,7-diazaspiro[4.4]non-2-ene-3-carbonyl}-4-fluoro-N-[(S)-phenyl[4-(propan-2-yl)phenyl]methyl]pyrrolidine-2-carboxamide]
IC50: 998 nM

CC(Cn1cncn1)C(=O)N1C[C@H](F)C[C@H]1C(=O)N[C@@H](c1ccccc1)c1ccc(C(C)C)cc1 (stereo partly drawn) [Compound 120, (2S,4R)-4-fluoro-1-[2-methyl-3-(1H-1,2,4-triazol-1-yl)propanoyl]-N-[(S)-phenyl[4-(propan-2-yl)phenyl]methyl]pyrrolidine-2-carboxamide]
IC50: 343 nM

CC(C)c1ccc([C@@H](NC(=O)[C@@H]2C[C@@H](F)CN2C(=O)c2cccc(-n3cncn3)c2)c2ccccc2)cc1 [Compound 123, (2S,4R)-4-fluoro-N-[(S)-phenyl[4-(propan-2-yl)phenyl]methyl]-1-[3-(1H-1,2,4-triazol-1-yl)benzoyl]pyrrolidine-2-carboxamide]
IC50: 1000 nM

CC(=O)N1C[C@@H]2CC[C@H]1C(C(=O)N1C[C@H](F)C[C@H]1C(=O)N[C@@H](c1ccccc1)c1ccc(C(C)C)cc1)C2 (stereo partly drawn) [Compound 176, (2S,4R)-1-[(1S,4R)-2-acetyl-2-azabicyclo[2.2.2]octane-6-carbonyl]-4-fluoro-N-[(S)-phenyl[4-(propan-2-yl)phenyl]methyl]pyrrolidine-2-carboxamide]
IC50: 410 nM

CC(=O)N1C2CCC1[C@@H](C(=O)N1C[C@H](F)C[C@H]1C(=O)N[C@@H](c1ccccc1)c1ccc(C(C)C)cc1)C2 (stereo partly drawn) [Compound 157, (2S,4R)-1-[(2S)-7-acetyl-7-azabicyclo[2.2.1]heptane-2-carbonyl]-4-fluoro-N-[(S)-phenyl[4-(propan-2-yl)phenyl]methyl]pyrrolidine-2-carboxamide]
IC50: 392 nM

CC(C)c1ccc([C@@H](NC(=O)[C@@H]2C[C@@H](F)CN2C(=O)Cc2ccncc2)c2ccccc2)cc1 [Compound 39, (2S,4R)-4-fluoro-N-[(S)-phenyl[4-(propan-2-yl)phenyl]methyl]-1-[2-(pyridin-4-yl)acetyl]pyrrolidine-2-carboxamide]
IC50: 50 nM

CC(=O)N1C[C@H](F)C[C@H]1C(=O)NC(c1cccc(-c2nnco2)c1)c1ccc(C(C)C)c(F)n1 (single isomer, unassigned) [Compound 700, (2S,4R)-1-acetyl-4-fluoro-N-[(S) or (R)-[6-fluoro-5-(propan-2-yl)pyridin-2-yl][3-(1,3,4-oxadiazol-2-yl)phenyl]methyl] pyrrolidine-2-carboxamide]
IC50: 321 nM

CC(=O)N1CCC[C@H]1C(=O)NC(c1ccc(C(C)C)cn1)c1ccccc1C (single isomer, unassigned) [Compound 641, (2S)-1-acetyl-N-[(S) or (R)-(2-methylphenyl)[5-(propan-2-yl)pyridin-2-yl]methyl]pyrrolidine-2-carboxamide]
IC50: 2950 nM

CC(=O)N1CC(Oc2ccc(C(=O)N3C[C@H](F)C[C@H]3C(=O)N[C@@H](c3ccccc3)c3ccc(C(C)C)cc3)cc2)C1 [Compound 112, (2S,4R)-1-{4-[(1-acetylazetidin-3-yl)oxy]benzoyl}-4-fluoro-N-[(S)-phenyl[4-(propan-2-yl)phenyl]methyl]pyrrolidine-2-carboxamide]
IC50: 854 nM

CC(C)c1ccc([C@@H](NC(=O)[C@@H]2C[C@@H](F)CN2C(=O)Cn2cc(Cl)cn2)c2ccccc2)cc1 [Compound 20, (2S,4R)-1-[2-(4-chloro-1H-pyrazol-1-yl)acetyl]-4-fluoro-N-[(S)-phenyl[4-(propan-2-yl)phenyl]methyl]pyrrolidine-2-carboxamide]
IC50: 46 nM

CC(=O)N1[C@H](C(=O)N[C@@H](c2ccccc2)c2ccc(C3CC3)c(F)c2)C[C@@H]2C[C@@H]21 [Compound 420, (1S,3S,5S)-2-acetyl-N-[(S)-(4-cyclopropyl-3-fluorophenyl)(phenyl)methyl]-2-azabicyclo[3.1.0] hexane-3-carboxamide]
IC50: 3560 nM

CC(C)c1ccc([C@@H](NC(=O)[C@@H]2C[C@@H](F)CN2C(=O)CCc2cnc[nH]2)c2ccccc2)cc1 [Compound 45, (2S,4R)-4-fluoro-1-[3-(1H-imidazol-5-yl)propanoyl]-N-[(S)-phenyl[4-(propan-2-yl)phenyl]methyl]pyrrolidine-2-carboxamide]
IC50: 58 nM

Cc1ncncc1C(=O)N1C[C@H](F)C[C@H]1C(=O)N[C@@H](c1ccccc1)c1ccc(C(C)C)cc1 [Compound 30, (2S,4R)-4-fluoro-1-(4-methylpyrimidine-5-carbonyl)-N-[(S)-phenyl[4-(propan-2-yl)phenyl]methyl]pyrrolidine-2-carboxamide]
IC50: 947 nM

CC(C)c1ccc([C@@H](NC(=O)[C@@H]2C[C@@H](F)CN2C(=O)CCc2cccnc2)c2ccccc2)cc1 [Compound 66, (2S,4R)-4-fluoro-N-[(S)-phenyl[4-(propan-2-yl)phenyl]methyl]-1-[3-(pyridin-3-yl)propanoyl]pyrrolidine-2-carboxamide]
IC50: 82 nM

O=C(N[C@@H](c1ccccc1)c1ccc(C2CC2)c(F)c1)[C@@H]1[C@H]2C[C@H]2CN1C(=O)Cc1cnn[nH]1 [Compound 440, (1S,2S,5R)-N-[(S)-(4-cyclopropyl-3-fluorophenyl)(phenyl)methyl]-3-[2-(1H-1,2,3-triazol-5-yl)acetyl]-3-azabicyclo[3.1.0] hexane-2-carboxamide]
IC50: 447 nM
